Assay results published in PubChem BioAssay AID2060902 (Molecular Pharmacology Branch, DTP, NCI, 2025).

Tested on: 485368-065-R3-J5-PDC spheroids with HUVEC/MSC, viability
Assay: Anticancer human tumor 485368-065-R3-J5-PDC patient-derived pancreatic carcinoma cell line growth inhibition [RAS]
Conditions: for IC50: curve of first compound; for viability, T/C: stronger effect = lower value
Procedure, shortened: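 Multi-cell-type spheroids: tumor cells plus HUVEC endothelial cells and mesenchymal stem cells. RAS-pathway inhibitors were combined with targeted agents, each dosed in half-log steps down from clinical Cmax, or from 10 microM when Cmax was unknown.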

[1] = second compound 0.0316 µM, first compound 0.0316 µM
[2] = second compound 0.0316 µM, first compound 0.1 µM
[3] = second compound 0.1 µM, first compound 0.0316 µM
[4] = second compound 0.1 µM, first compound 0.1 µM
[5] = second compound 0.316 µM, first compound 0.0316 µM
[6] = second compound 0.316 µM, first compound 0.1 µM
[7] = second compound 1 µM, first compound 0.0316 µM
[8] = second compound 1 µM, first compound 0.1 µM
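Further: spheroids exposed to agents for seven days before readout.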

SMILES: CC(C)n1nc(-c2ccc3oc(N)nc3c2)c2c(N)ncnc21 + C=CC(=O)N1CCN(c2nc(OCC3CCCN3C)nc3c(F)c(-c4nc(N)cc(C)c4C(F)(F)F)c(Cl)cc23)C(C)C1
- IC50 (second compound 0.00316 µM): 0.014 µM
- IC50 (second compound 0.01 µM): 0.0146 µM
- IC50 (second compound 0.0316 µM): 0.0169 µM
- IC50 (second compound 0.1 µM): 0.0196 µM
- IC50 (second compound 0.316 µM): 0.0169 µM
- IC50 (second compound 1 µM): 0.0217 µM
- viability, T/C (second compound 0.00316 µM, first compound 0.000316 µM): 106%
- viability, T/C (second compound 0.00316 µM, first compound 0.001 µM): 99.4%
- viability, T/C (second compound 0.00316 µM, first compound 0.00316 µM): 77.1%
- viability, T/C (second compound 0.00316 µM, first compound 0.01 µM): 56%
- viability, T/C (second compound 0.00316 µM, first compound 0.0316 µM): 35.6%
- viability, T/C (second compound 0.00316 µM, first compound 0.1 µM): 16.1%
- viability, T/C (second compound 0.01 µM, first compound 0.000316 µM): 104%
- viability, T/C (second compound 0.01 µM, first compound 0.001 µM): 90.4%
- viability, T/C (second compound 0.01 µM, first compound 0.00316 µM): 81.4%
- viability, T/C (second compound 0.01 µM, first compound 0.01 µM): 53.6%
- viability, T/C (second compound 0.01 µM, first compound 0.0316 µM): 37.2%
- viability, T/C (second compound 0.01 µM, first compound 0.1 µM): 15.3%
- viability, T/C (second compound 0.0316 µM, first compound 0.000316 µM): 97.2%
- viability, T/C (second compound 0.0316 µM, first compound 0.001 µM): 95.8%
- viability, T/C (second compound 0.0316 µM, first compound 0.00316 µM): 84.7%
- viability, T/C (second compound 0.0316 µM, first compound 0.01 µM): 60.9%
- viability, T/C [1]: 36.5%
- viability, T/C [2]: 16.6%
- viability, T/C (second compound 0.1 µM, first compound 0.000316 µM): 105%
- viability, T/C (second compound 0.1 µM, first compound 0.001 µM): 90.9%
- viability, T/C (second compound 0.1 µM, first compound 0.00316 µM): 96.3%
- viability, T/C (second compound 0.1 µM, first compound 0.01 µM): 73.9%
- viability, T/C [3]: 32.8%
- viability, T/C [4]: 15.8%
- viability, T/C (second compound 0.316 µM, first compound 0.000316 µM): 105%
- viability, T/C (second compound 0.316 µM, first compound 0.001 µM): 99.8%
- viability, T/C (second compound 0.316 µM, first compound 0.00316 µM): 83.3%
- viability, T/C (second compound 0.316 µM, first compound 0.01 µM): 60.1%
- viability, T/C [5]: 38%
- viability, T/C [6]: 19.6%
- viability, T/C (second compound 1 µM, first compound 0.000316 µM): 100%
- viability, T/C (second compound 1 µM, first compound 0.001 µM): 87.8%
- viability, T/C (second compound 1 µM, first compound 0.00316 µM): 84.1%
- viability, T/C (second compound 1 µM, first compound 0.01 µM): 67%
- viability, T/C [7]: 41%
- viability, T/C [8]: 16.1%

SMILES: CC(Nc1ccc2c(c1)OCCn1cc(N3C(=O)OCC3C(F)F)nc1-2)C(N)=O (stereo unspecified) + CCn1c(-c2cccnc2C(C)OC)c2c3cc(ccc31)N1CCOC(CC(NC(=O)C(C(C)C)N(C)C(=O)C3(F)CCN(C(=O)C#CC(C)(C)N(C)C)CC3)C(=O)N3CCCC(N3)C(=O)OCC(C)(C)C2)C1
- IC50 (second compound 0.000949 µM): > 10 µM
- IC50 (second compound 0.003 µM): > 10 µM
- IC50 (second compound 0.00949 µM): > 10 µM
- IC50 (second compound 0.03 µM): > 10 µM
- IC50 (second compound 0.0949 µM): > 10 µM
- IC50 (second compound 0.3 µM): > 10 µM
- viability, T/C (second compound 0.000949 µM, first compound 0.0316 µM): 106%
- viability, T/C (second compound 0.000949 µM, first compound 0.1 µM): 93.9%
- viability, T/C (second compound 0.000949 µM, first compound 0.316 µM): 94.2%
- viability, T/C (second compound 0.000949 µM, first compound 1 µM): 72.2%
- viability, T/C (second compound 0.000949 µM, first compound 3.16 µM): 70.4%
- viability, T/C (second compound 0.000949 µM, first compound 10 µM): 65.8%
- viability, T/C (second compound 0.003 µM, first compound 0.0316 µM): 90.8%
- viability, T/C (second compound 0.003 µM, first compound 0.1 µM): 93%
- viability, T/C (second compound 0.003 µM, first compound 0.316 µM): 93.7%
- viability, T/C (second compound 0.003 µM, first compound 1 µM): 86.2%
- viability, T/C (second compound 0.003 µM, first compound 3.16 µM): 98.9%
- viability, T/C (second compound 0.003 µM, first compound 10 µM): 56.8%
- viability, T/C (second compound 0.00949 µM, first compound 0.0316 µM): 94.4%
- viability, T/C (second compound 0.00949 µM, first compound 0.1 µM): 101%
- viability, T/C (second compound 0.00949 µM, first compound 0.316 µM): 84.9%
- viability, T/C (second compound 0.00949 µM, first compound 1 µM): 96%
- viability, T/C (second compound 0.00949 µM, first compound 3.16 µM): 85.9%
- viability, T/C (second compound 0.00949 µM, first compound 10 µM): 55.7%
- viability, T/C (second compound 0.03 µM, first compound 0.0316 µM): 96.6%
- viability, T/C (second compound 0.03 µM, first compound 0.1 µM): 91%
- viability, T/C (second compound 0.03 µM, first compound 0.316 µM): 99%
- viability, T/C (second compound 0.03 µM, first compound 1 µM): 82.5%
- viability, T/C (second compound 0.03 µM, first compound 3.16 µM): 95.5%
- viability, T/C (second compound 0.03 µM, first compound 10 µM): 65%
- viability, T/C (second compound 0.0949 µM, first compound 0.0316 µM): 103%
- viability, T/C (second compound 0.0949 µM, first compound 0.1 µM): 94.1%
- viability, T/C (second compound 0.0949 µM, first compound 0.316 µM): 78.6%
- viability, T/C (second compound 0.0949 µM, first compound 1 µM): 93.7%
- viability, T/C (second compound 0.0949 µM, first compound 3.16 µM): 77.9%
- viability, T/C (second compound 0.0949 µM, first compound 10 µM): 62.1%
- viability, T/C (second compound 0.3 µM, first compound 0.0316 µM): 100%
- viability, T/C (second compound 0.3 µM, first compound 0.1 µM): 101%
- viability, T/C (second compound 0.3 µM, first compound 0.316 µM): 86.6%
- viability, T/C (second compound 0.3 µM, first compound 1 µM): 83.7%
- viability, T/C (second compound 0.3 µM, first compound 3.16 µM): 84%
- viability, T/C (second compound 0.3 µM, first compound 10 µM): 71.8%

SMILES: CCC(CC)c1cc(NC2CCC(N)C2)n2nccc2n1 (stereo unspecified) + C#Cc1c(F)ccc2cc(O)cc(-c3ncc4c(N5CC6CCC(C5)N6)nc(OCC56CCCN5CC(F)C6)nc4c3F)c12
- IC50 (second compound 0.0316 µM): 2.03 µM
- IC50 (second compound 0.1 µM): 1.94 µM
- IC50 (second compound 0.316 µM): 2.01 µM
- IC50 (second compound 1 µM): 1.98 µM
- IC50 (second compound 3.16 µM): 1.83 µM
- IC50 (second compound 10 µM): 1.25 µM
- viability, T/C [1]: 108%
- viability, T/C [2]: 116%
- viability, T/C (second compound 0.0316 µM, first compound 0.316 µM): 110%
- viability, T/C (second compound 0.0316 µM, first compound 1 µM): 147%
- viability, T/C (second compound 0.0316 µM, first compound 3.16 µM): 4.74%
- viability, T/C (second compound 0.0316 µM, first compound 10 µM): 7.01%
- viability, T/C [3]: 107%
- viability, T/C [4]: 95.8%
- viability, T/C (second compound 0.1 µM, first compound 0.316 µM): 109%
- viability, T/C (second compound 0.1 µM, first compound 1 µM): 129%
- viability, T/C (second compound 0.1 µM, first compound 3.16 µM): 4.21%
- viability, T/C (second compound 0.1 µM, first compound 10 µM): 7.06%
- viability, T/C [5]: 99.4%
- viability, T/C [6]: 105%
- viability, T/C (second compound 0.316 µM, first compound 0.316 µM): 114%
- viability, T/C (second compound 0.316 µM, first compound 1 µM): 152%
- viability, T/C (second compound 0.316 µM, first compound 3.16 µM): 5.79%
- viability, T/C (second compound 0.316 µM, first compound 10 µM): 7.25%
- viability, T/C [7]: 91.1%
- viability, T/C [8]: 109%
- viability, T/C (second compound 1 µM, first compound 0.316 µM): 121%
- viability, T/C (second compound 1 µM, first compound 1 µM): 138%
- viability, T/C (second compound 1 µM, first compound 3.16 µM): 4.74%
- viability, T/C (second compound 1 µM, first compound 10 µM): 6.22%
- viability, T/C (second compound 3.16 µM, first compound 0.0316 µM): 86.7%
- viability, T/C (second compound 3.16 µM, first compound 0.1 µM): 83.8%
- viability, T/C (second compound 3.16 µM, first compound 0.316 µM): 96.9%
- viability, T/C (second compound 3.16 µM, first compound 1 µM): 128%
- viability, T/C (second compound 3.16 µM, first compound 3.16 µM): 4.66%
- viability, T/C (second compound 3.16 µM, first compound 10 µM): 6.53%
- viability, T/C (second compound 10 µM, first compound 0.0316 µM): 47.2%
- viability, T/C (second compound 10 µM, first compound 0.1 µM): 42.1%
- viability, T/C (second compound 10 µM, first compound 0.316 µM): 61.7%
- viability, T/C (second compound 10 µM, first compound 1 µM): 93.3%
- viability, T/C (second compound 10 µM, first compound 3.16 µM): 3.14%
- viability, T/C (second compound 10 µM, first compound 10 µM): 6.12%
